From patent US20200345795A1, “MODULATION OF INTESTINAL MICROBIOTA IN PRE-DIABETES AND TYPE 2 DIABETES” (Medlab IP Pty Ltd, priority 2017, published 2020)

System: intestinal microbiota
Assay: Faecal microbial profile (16S rRNA gene sequencing, MALDI-TOF) in randomised placebo-controlled trial
Format: in vivo, human
Protocol: The study described herein was a pilot, single site, randomised, double blind, placebo-controlled trial. Ethical approval was granted by the Sydney Local Health District Human Research Ethics Committee, RPA Hospital, Sydney, Australia. The study was carried out according to the Declaration of Helsinki, the National Health and Medical Research Council National Statement on Ethical Conduct in Research Involving Humans and the Notes for Guidance on Good Clinical Practice as adopted by the Australian Therapeutic Goods Administration and the International Conference on Harmonisation Good Clinical Practise guidelines. Written informed consent was obtained from participants before enrolment.
The active product administered was a capsule containing 5×10^10 colony forming units (cfu) of a multi-strain probiotic combination of Lactobacillus plantarum, Lactobacillus bulgaricus, Lactobacillus gasseri, Bifidobacterum breve, Bifidobacterium animalis subsp. lactis, Bifidobacterium bifidum, Streptococcus thermophilus and Saccharomyces boulardii. The placebo was a capsule containing 50 mg maltodextrin. The probiotic and placebo capsules were opaque white in colour and looked and smelled identical. […]
Faecal bacterial profiles were determined using the Ion S5 next-generation sequencing platform (Thermo Fisher) and faecal yeasts were identified by matrix-assisted laser desorption ionization time-of-flight mass spectrometry (MALDI-TOF). […] After extraction, DNA was quantified in a Qubit 2.0 Fluorometer (Invitrogen, Thermo Fisher). […] PCR products were quantified and their quality was evaluated by electrophoretic fractionation in 2% agarose gels (E-Gel, EX Agarose Gel, Thermo Fisher). […]

## CN(C)C(=N)NC(=N)N [metformin, N,N-dimethylimidodicarbonimidic diamide]
Participants taking vs not taking metformin, p=0.002 (species) and 0.036 (genera)
  intestinal microbial community (beta diversity) at species and genera level: differed from those not taking metformin
Participants taking vs not taking metformin, p=0.56
  effect on intestinal microbiota at the family level: no effect
Those taking metformin in the placebo group, in contrast to the probiotic group
  relative abundance of Akkermansia municiphila: lower relative abundance
